The record followed here is patent US20260083865A1, “PROSTATE SPECIFIC MEMBRANE ANTIGEN (PSMA) LIGANDS AND USE THEREOF” (priority 2022, published 2026).

The target in assay [1] is T1, PSMA-expressing C4-2 cells (Homo sapiens, UniProt Q04609).
T1 construct: PSMA-expressing C4-2 cells (ATCC, Cat. No. CRL-3314) were cultured in RPMI-1640; host or cells: C4-2 cells
Kind of assay: FACS binding assay (competition with 50 nM PSM-0183). The note with it: pIC50 category of FACS binding, C4-2 cells; read-out: pIC50 [C4-2] CAT (converted). The method in brief: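 Competition format: fluorescent tracer PSM-0183 (50 nM) displaced from PSMA on C4-2 cells by a test compound titration over 1 h at 4 °C. Bound tracer was quantified as flow-cytometric AF488 median fluorescence after washing. Four-parameter logistic fits of MFI data gave IC50 and pIC50.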
In general terms: In flow cytometry, cells or beads pass a laser one at a time.

The target in assay [2] is T2, Fc-fusion protein of human PSMA (hPSMA-Fc) (Homo sapiens, UniProt Q04609).
T2 construct: purchased Acro Biosystems PSA-H5264
T2 sequence (Q04609 44-750 limits assumed): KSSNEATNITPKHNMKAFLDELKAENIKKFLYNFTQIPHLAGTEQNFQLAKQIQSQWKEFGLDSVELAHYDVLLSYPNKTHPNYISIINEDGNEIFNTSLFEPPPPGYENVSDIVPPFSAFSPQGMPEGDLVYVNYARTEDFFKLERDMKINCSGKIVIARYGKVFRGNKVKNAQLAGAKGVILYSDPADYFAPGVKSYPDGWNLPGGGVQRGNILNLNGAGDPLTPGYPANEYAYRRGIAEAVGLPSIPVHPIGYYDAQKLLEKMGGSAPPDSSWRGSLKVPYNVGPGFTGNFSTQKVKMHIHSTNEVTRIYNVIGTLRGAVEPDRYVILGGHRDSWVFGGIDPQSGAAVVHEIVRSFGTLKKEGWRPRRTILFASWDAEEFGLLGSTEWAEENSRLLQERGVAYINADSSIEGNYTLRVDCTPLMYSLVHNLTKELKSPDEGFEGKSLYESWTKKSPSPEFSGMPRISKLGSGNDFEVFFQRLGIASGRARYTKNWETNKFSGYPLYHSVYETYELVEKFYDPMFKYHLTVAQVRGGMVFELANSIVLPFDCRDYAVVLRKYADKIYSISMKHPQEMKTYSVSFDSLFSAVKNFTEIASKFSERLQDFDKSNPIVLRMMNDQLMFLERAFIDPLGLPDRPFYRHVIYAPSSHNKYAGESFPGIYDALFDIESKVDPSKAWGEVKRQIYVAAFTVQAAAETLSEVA
As to the kind of experiment: Surface plasmon resonance assay (Biacore T200, single cycle kinetic). The class given is binding. The note with it: pKD category for PSMA SPR activity assay, hPSMA-Fc, 25° C.; read-out: pKD CAT (converted). In a few lines:
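KD, expressed as pKD, came from 1:1 Langmuir fits of reference- and buffer-blank-subtracted SPR data. The runs were single-cycle kinetics at 25° C in HBST/0.1% DMSO over human PSMA-Fc, captured to ~1000 RU on a peptide-coated CM5 surface and regenerated with 10 mM glycine pH 1.5.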
(SPR reads the build-up and loss of mass on a sensor chip optically.)

Numbered stars: 1 amine (or outer) side, 2 acyl side, 3 side chain; on linkers, the order of the positions; unused ones are H or OH. Bridge positions count the residues as written; N and C are the ends. Square brackets hold non-standard residues; d marks the D form. Peptide text beside a SMILES is read from it. * marks the point of attachment. X3 = O=C(O)CN1CCN(CC(=O)O)CCN(CC(=O)NCCCOCCOCCOCCCN*)CCN(CC(=O)O)CC1; DOTA = O=C(O)CN1CCN(CC(=O)O)CCN(CC(=O)*)CCN(CC(=O)O)CC1; Lys(Me3) = C[N+](C)(C)CCCC[C@H](N)C(=O)O; Phe(4-Cl) = N[C@@H](Cc1ccc(Cl)cc1)C(=O)O; Arg(Me) = CNC(=N)NCCC[C@H](N)C(=O)O; X1 = O=C(CC1CCN([*:1])CC1)[*:2]; Suc = O=C(CCC(=O)[*:2])[*:1]; Tle = CC(C)(C)[C@H](N)C(=O)O; Nle = CCCC[C@H](N)C(=O)O; Aib = CC(C)(N)C(=O)O

T1 sequence (Q04609 whole entry): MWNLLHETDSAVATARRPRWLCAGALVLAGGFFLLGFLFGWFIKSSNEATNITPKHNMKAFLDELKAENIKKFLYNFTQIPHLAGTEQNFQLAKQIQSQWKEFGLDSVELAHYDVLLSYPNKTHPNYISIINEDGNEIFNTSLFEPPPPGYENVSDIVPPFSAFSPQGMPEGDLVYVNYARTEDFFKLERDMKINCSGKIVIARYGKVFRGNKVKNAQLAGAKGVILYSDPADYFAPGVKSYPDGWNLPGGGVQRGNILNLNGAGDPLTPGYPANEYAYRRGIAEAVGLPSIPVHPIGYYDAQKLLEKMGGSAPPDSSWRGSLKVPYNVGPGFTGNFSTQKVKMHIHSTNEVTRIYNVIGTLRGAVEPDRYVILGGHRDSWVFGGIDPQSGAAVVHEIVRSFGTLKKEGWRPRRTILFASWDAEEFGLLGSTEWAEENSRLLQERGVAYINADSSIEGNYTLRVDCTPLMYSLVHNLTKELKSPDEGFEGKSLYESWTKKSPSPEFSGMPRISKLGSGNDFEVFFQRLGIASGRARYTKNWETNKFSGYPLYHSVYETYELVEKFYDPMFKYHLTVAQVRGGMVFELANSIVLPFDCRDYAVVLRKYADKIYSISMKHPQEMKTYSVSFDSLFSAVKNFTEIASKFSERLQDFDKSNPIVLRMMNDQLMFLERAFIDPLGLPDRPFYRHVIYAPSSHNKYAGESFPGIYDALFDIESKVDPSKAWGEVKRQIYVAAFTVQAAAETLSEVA

`CCCC[C@H](NC(=O)[C@@H]1CSSC[C@H](NC(=O)[C@H](Cc2ccccc2)NC(=O)[C@H](C)NC(=O)[C@@H](NC(C)=O)[C@@H](C)O)C(=O)N[C@@H](CCCCN)C(=O)N[C@@H](CCCNC(=N)N)C(=O)N[C@@H](C)C(=O)N[C@@H](CC(N)=O)C(=O)N1)C(=O)N[C@@H](C)C(=O)N[C@@H](CC(=O)O)C(N)=O` [PSM-0476, Ac-Thr-Als-Phe-[Cys-Lys-Arg-Ala-Asn-Cys]-Nle-Als-Asp-NH2] (Ac-TAFCKRANC[Nle]AD-NH2; disulfide 4-9): in assay [1], the IC50 was 200 to 1260 nM. Moreover, the Kd in assay [2] was 126 to 501 nM.

As for `CC(=O)N[C@H](C(=O)NC(C)(C)C(=O)N[C@@H](Cc1ccccc1)C(=O)N[C@H]1CSSC[C@@H](C(=O)N[C@H](C(=O)NCC(N)=O)C(C)(C)C)NC(=O)[C@H](CC(N)=O)NC(=O)C(C)(C)NC(=O)[C@H](CCCNC(=N)N)NC(=O)[C@H](CCCCN)NC1=O)[C@@H](C)O` [PSM-0477, Ac-Thr-Aib-Phe-[Cys-Lys-Arg-Aib-Asn-Cys]-Tle-Gly-NH2] (Ac-T[Aib]FCKR[Aib]NC[Tle]G-NH2; disulfide 4-9), in assay [1], the IC50 was under 200 nM. Further, the Kd in assay [2] was under 12.6 nM.

`CC(=O)N[C@H](C(=O)NC(C)(C)C(=O)N[C@@H](Cc1ccccc1)C(=O)N[C@H]1CSSC[C@@H](C(=O)N[C@H](C(=O)N[C@H](C(N)=O)[C@@H](C)O)C(C)(C)C)NC(=O)[C@H](CC(=O)O)NC(=O)C(C)(C)NC(=O)[C@H](CCCNC(=N)N)NC(=O)[C@H](CCCCN)NC1=O)[C@@H](C)O` [PSM-0478, Ac-Thr-Aib-Phe-[Cys-Lys-Arg-Aib-Asp-Cys]-Tle-Thr-NH2] (Ac-T[Aib]FCKR[Aib]DC[Tle]T-NH2; disulfide 4-9): the IC50 in assay [1] was under 200 nM. Besides, in assay [2], the Kd is under 12.6 nM.

For `CC(=O)N[C@H](C(=O)NC(C)(C)C(=O)N[C@@H](Cc1ccccc1)C(=O)N[C@H]1CSSC[C@@H](C(=O)N[C@H](C(=O)N[C@H](C(N)=O)[C@@H](C)O)C(C)(C)C)NC(=O)CNC(=O)C(C)(C)NC(=O)[C@H](CCCNC(=N)N)NC(=O)[C@H](CCCCN)NC1=O)[C@@H](C)O` [PSM-0479, Ac-Thr-Aib-Phe-[Cys-Lys-Arg-Aib-Gly-Cys]-Tle-Thr-NH2] (Ac-T[Aib]FCKR[Aib]GC[Tle]T-NH2; disulfide 4-9), the IC50 in assay [1] was under 200 nM. Also, the Kd in assay [2] was under 12.6 nM.

In the case of `CC(C)C[C@H](NC(=O)[C@@H]1CSSC[C@H](NC(=O)[C@H](Cc2ccccc2)NC(=O)[C@H](C)NC(=O)[C@@H](NC(=O)CCC(=O)NCCCOCCOCCOCCCNC(=O)CN2CCN(CC(=O)O)CCN(CC(=O)O)CCN(CC(=O)O)CC2)[C@@H](C)O)C(=O)N[C@@H](CCCCN)C(=O)N[C@@H](CCCNC(=N)N)C(=O)N[C@@H](C)C(=O)N[C@@H](CC(N)=O)C(=O)N1)C(N)=O` [PSM-0480, DOTA-Ttds-Thr-Ala-Phe-[Cys-Lys-Arg-Ala-Asn-Cys]-Lou-NH2] ({X3-Suc}-TAFCKRANCL-NH2; disulfide 4-9), the IC50 in assay [1] was 1260 to 3160 nM. In addition, the Kd in assay [2] was 126 to 501 nM.

Consider `CC(=O)N[C@H](C(=O)NC(C)(C)C(=O)N[C@@H](Cc1ccc(Cl)cc1)C(=O)N[C@H]1CSSC[C@@H](C(=O)N[C@H](C(=O)N[C@H](C(=O)N2CCC(CC(=O)N[C@H](CCCCNC(=O)CN3CCN(CC(=O)O)CCN(CC(=O)O)CCN(CC(=O)O)CC3)C(N)=O)CC2)[C@@H](C)O)C(C)(C)C)NC(=O)[C@H](CC(N)=O)NC(=O)C(C)(C)NC(=O)[C@H](CCCNC(=N)N)NC(=O)[C@H](CCCCN)NC1=O)[C@@H](C)O` [PSM-0482, Ac-Thr-Aib-Pcf-[Cys-Lys-Arg-Aib-Asn-Cys]-Tle-Thr-Cmp-lys(DOTA)-NH2] (Ac-T[Aib][Phe(4-Cl)]CKR[Aib]NC[Tle]T[X1][dK](DOTA)-NH2; disulfide 4-9), for which the IC50 in assay [1] is under 200 nM. Further, the Kd in assay [2] is under 12.6 nM.

Turning to `CNC(=N)NCCC[C@@H]1NC(=O)[C@H](CCCC[N+](C)(C)C)NC(=O)[C@@H](NC(=O)[C@H](Cc2ccc(Cl)cc2)NC(=O)C(C)(C)NC(=O)[C@@H](NC(=O)CC2CCN(C(=O)CN3CCN(CC(=O)O)CCN(CC(=O)O)CCN(CC(=O)O)CC3)CC2)[C@@H](C)O)CSSC[C@@H](C(=O)N[C@H](C(=O)N[C@H](C(N)=O)[C@@H](C)O)C(C)(C)C)NC(=O)[C@H](CC(N)=O)NC(=O)C(C)(C)NC1=O` [PSM-0483, DOTA-Cmp-Thr-Aib-Pcf-[Cys-KMe3-Arg(Me)-Aib-Asn-Cys]-Tle-Thr-NH2] ({DOTA}-[X1]T[Aib][Phe(4-Cl)]C[Lys(Me3)][Arg(Me)][Aib]NC[Tle]T-NH2; disulfide 5-10), the IC50 in assay [1] was under 200 nM. The Kd in assay [2] was 12.6 to 126 nM.
